As usually defined, the Kd is the concentration at which binding is half-saturated.

Experimental findings from ChEMBL document CHEMBL3991601, “The target landscape of clinical kinase drugs” (Science, 2017) are described below.

Activity calls are given as the source filed them.

Assay [1] has as its target Cyclin-dependent kinase 4 (Homo sapiens, UniProt P11802).
For a further assay, the target named is Myosin-14 (Homo sapiens, UniProt Q7Z406).
For assay [2], the target named is Casein kinase I isoform alpha (Homo sapiens, UniProt P48729).
The target of another assay is T1, Heme oxygenase 2 (Homo sapiens, UniProt P30519).
T1 sequence (P30519 whole entry): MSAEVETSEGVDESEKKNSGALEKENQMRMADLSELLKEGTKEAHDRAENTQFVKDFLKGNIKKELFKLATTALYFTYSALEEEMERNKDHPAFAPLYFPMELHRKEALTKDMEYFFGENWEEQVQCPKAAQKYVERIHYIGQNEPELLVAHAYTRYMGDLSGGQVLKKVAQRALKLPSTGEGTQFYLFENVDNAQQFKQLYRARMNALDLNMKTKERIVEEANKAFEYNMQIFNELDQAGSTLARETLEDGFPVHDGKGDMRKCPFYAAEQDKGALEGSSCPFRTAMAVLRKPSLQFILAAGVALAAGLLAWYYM

In assay [3] the target is T2, Serine/threonine-protein kinase STK11 (Homo sapiens, UniProt Q15831).
T2 sequence (Q15831 whole entry): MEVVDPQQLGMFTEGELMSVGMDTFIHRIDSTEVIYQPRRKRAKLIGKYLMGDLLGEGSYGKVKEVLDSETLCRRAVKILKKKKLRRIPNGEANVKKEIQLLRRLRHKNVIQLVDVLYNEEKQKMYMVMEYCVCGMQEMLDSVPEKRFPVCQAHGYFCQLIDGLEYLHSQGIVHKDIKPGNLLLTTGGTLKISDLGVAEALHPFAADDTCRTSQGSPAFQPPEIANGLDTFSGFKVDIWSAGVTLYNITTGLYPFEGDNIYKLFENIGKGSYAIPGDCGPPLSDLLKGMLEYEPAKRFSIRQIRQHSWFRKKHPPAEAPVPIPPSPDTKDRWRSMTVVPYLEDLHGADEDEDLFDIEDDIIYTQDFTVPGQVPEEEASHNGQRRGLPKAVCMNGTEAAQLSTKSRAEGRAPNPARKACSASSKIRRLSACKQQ

Another assay concerns the target T3, Pyridoxal kinase (Homo sapiens, UniProt O00764).
T3 sequence (O00764 whole entry): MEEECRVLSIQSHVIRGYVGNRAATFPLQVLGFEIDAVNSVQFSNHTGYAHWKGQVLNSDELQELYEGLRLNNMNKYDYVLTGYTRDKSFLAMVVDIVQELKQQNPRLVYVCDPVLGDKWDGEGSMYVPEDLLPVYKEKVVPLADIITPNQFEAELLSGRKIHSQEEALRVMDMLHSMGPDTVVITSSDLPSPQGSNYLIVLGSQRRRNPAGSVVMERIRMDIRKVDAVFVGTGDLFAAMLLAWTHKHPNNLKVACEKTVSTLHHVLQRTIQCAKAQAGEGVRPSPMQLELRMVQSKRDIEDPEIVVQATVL

The target of assay [4] is T4, MAP/microtubule affinity-regulating kinase 4 (Homo sapiens, UniProt Q96L34).
T4 sequence (Q96L34 whole entry): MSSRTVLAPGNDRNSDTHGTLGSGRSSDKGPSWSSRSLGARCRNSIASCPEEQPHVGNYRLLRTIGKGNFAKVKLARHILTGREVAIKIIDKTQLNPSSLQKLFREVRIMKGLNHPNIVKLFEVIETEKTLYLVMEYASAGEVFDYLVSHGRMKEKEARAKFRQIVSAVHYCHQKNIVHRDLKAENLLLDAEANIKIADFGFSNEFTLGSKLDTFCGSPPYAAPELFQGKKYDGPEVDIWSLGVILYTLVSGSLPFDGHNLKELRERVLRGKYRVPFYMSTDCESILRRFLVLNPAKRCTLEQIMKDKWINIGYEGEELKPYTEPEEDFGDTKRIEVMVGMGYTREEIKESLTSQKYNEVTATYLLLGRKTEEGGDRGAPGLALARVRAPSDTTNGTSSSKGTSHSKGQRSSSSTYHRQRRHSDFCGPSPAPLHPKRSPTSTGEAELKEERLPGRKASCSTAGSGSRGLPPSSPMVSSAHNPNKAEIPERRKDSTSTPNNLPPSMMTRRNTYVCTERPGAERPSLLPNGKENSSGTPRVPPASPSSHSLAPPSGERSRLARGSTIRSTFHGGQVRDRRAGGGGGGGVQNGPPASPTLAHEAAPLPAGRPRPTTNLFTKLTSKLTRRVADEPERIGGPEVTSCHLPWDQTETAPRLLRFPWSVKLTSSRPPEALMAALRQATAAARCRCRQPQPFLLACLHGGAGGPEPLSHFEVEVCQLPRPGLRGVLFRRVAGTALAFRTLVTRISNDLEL

Another assay has as its target T5, Ephrin type-B receptor 4 (Homo sapiens, UniProt P54760).
T5 sequence (P54760 whole entry): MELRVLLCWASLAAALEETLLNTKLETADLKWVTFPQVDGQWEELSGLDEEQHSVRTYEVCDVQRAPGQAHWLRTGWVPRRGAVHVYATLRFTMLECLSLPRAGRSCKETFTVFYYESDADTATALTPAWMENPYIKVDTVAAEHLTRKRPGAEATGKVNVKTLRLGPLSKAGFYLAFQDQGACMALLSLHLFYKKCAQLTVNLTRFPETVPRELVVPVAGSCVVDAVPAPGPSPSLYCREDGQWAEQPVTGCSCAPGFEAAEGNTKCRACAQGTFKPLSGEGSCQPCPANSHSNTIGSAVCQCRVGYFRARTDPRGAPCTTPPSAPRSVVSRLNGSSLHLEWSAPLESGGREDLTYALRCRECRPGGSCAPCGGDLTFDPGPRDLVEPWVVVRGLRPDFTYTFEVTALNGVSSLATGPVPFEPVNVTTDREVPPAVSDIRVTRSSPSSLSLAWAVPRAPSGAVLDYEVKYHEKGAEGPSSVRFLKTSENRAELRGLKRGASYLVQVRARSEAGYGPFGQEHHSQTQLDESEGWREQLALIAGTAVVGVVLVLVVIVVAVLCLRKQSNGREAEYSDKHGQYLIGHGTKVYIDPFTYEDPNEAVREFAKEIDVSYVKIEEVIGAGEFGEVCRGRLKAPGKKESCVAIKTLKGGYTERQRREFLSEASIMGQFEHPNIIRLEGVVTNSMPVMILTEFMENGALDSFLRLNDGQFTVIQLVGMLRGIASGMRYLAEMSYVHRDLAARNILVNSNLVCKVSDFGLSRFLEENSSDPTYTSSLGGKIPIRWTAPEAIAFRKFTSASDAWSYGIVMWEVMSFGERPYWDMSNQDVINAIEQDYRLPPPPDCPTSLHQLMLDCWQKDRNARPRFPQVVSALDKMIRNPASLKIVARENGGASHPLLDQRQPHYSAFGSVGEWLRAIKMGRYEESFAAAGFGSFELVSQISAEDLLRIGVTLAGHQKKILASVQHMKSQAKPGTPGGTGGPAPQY
Also: in the data inactive means no Kd found up to 30 µM.

Sequence of Myosin-14 (Q7Z406 whole entry, canonical isoform): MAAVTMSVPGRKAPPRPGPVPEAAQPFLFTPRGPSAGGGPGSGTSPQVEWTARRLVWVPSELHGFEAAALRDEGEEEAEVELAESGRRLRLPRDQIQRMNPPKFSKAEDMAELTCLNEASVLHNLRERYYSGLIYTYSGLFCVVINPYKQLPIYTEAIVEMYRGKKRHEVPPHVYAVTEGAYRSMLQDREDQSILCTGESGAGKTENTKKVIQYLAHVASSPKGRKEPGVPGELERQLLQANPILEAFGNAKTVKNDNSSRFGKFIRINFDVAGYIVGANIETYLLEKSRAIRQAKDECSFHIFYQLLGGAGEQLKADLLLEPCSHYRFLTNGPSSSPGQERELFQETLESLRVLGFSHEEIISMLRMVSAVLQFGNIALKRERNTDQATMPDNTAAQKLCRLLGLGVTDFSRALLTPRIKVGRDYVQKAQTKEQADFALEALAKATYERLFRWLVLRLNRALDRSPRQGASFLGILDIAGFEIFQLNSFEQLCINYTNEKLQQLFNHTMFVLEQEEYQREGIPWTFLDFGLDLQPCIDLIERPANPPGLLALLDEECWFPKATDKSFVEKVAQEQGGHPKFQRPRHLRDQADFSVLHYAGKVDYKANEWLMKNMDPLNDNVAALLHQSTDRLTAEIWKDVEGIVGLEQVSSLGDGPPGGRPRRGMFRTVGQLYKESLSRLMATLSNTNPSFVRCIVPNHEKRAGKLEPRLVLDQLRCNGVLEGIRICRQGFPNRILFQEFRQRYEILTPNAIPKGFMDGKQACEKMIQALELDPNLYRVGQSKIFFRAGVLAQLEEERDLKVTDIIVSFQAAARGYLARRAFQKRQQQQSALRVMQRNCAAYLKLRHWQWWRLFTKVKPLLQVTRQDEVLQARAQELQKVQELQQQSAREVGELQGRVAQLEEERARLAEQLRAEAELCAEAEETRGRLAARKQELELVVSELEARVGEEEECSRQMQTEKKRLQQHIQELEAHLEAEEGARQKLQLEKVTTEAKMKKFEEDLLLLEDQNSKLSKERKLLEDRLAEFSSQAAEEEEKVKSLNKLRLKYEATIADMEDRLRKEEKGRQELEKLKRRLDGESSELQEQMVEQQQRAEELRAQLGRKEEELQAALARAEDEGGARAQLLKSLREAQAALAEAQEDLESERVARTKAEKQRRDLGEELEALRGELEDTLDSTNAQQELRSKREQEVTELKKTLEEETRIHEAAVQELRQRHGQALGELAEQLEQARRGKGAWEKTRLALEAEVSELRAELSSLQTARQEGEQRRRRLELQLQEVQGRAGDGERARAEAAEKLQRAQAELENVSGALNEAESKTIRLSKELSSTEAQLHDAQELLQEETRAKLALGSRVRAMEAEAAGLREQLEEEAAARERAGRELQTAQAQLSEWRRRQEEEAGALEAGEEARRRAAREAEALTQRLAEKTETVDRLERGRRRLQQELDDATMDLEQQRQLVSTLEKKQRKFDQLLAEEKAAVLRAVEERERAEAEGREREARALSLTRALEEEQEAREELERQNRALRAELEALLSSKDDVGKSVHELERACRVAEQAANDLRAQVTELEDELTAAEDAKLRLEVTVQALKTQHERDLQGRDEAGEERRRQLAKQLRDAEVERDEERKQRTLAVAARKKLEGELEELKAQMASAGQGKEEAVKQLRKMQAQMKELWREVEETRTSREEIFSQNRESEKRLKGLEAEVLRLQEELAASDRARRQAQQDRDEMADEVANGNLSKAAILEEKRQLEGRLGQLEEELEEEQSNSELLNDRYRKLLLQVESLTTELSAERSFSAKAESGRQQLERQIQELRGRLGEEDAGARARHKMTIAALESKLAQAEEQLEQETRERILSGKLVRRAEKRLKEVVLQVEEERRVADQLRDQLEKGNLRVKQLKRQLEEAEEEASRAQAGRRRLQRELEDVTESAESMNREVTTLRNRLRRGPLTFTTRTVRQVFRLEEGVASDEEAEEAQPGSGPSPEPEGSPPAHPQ
Sequence of Cyclin-dependent kinase 4 (P11802 whole entry): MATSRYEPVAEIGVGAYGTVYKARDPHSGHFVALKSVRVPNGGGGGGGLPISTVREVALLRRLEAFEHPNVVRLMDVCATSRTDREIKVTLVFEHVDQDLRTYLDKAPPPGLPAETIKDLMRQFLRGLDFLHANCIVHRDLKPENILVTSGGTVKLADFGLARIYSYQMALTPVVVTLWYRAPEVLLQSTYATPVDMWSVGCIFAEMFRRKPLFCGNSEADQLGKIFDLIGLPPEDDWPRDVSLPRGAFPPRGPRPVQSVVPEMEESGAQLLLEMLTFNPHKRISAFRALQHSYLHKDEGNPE
Sequence of Casein kinase I isoform alpha (P48729 whole entry, canonical isoform): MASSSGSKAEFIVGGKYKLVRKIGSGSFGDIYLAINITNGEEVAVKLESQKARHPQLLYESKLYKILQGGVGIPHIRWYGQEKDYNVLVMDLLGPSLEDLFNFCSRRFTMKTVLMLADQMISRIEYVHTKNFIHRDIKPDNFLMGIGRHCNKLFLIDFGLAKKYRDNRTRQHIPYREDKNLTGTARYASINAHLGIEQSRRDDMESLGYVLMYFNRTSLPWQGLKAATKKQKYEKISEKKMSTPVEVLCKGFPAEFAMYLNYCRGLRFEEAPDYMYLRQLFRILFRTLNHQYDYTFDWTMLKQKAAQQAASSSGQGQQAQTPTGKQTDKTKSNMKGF

Consider `COc1cc(CCc2cc(NC(=O)c3ccc(N4C[C@@H](C)N[C@@H](C)C4)cc3)n[nH]2)cc(OC)c1` [AZD-4547], for which the Kd (in assay [1]; on Myosin-14; in assay [2]; at Heme oxygenase 2; in assay [3]; at Pyridoxal kinase) was > 30 µM (inactive) throughout. In addition, the Kd (in assay [4]; on Ephrin type-B receptor 4) was > 30 µM (inactive) each time.
Take `C[C@@H]1CN(Cc2ccc(F)cc2)[C@@H](C)CN1C(=O)c1cc2c(C(=O)C(=O)N(C)C)cn(C)c2cc1Cl` [TALMAPIMOD]: the Kd (in assay [1]; on Myosin-14; in assay [2]; on Heme oxygenase 2; in assay [3]; on Pyridoxal kinase) was > 30 µM (inactive) each time. Moreover, the Kd (in assay [4]; on Ephrin type-B receptor 4) was > 30 µM (inactive) throughout.
With `COc1ccc(-c2ccc3c(N4CCOC[C@@H]4C)nc(N4CCOC[C@@H]4C)nc3n2)cc1CO` [AZD-8055], the Kd (in assay [1]; at Myosin-14; in assay [2]; on Heme oxygenase 2; in assay [3]; at Pyridoxal kinase) was > 30 µM (inactive) in each case. The Kd (in assay [4]; on Ephrin type-B receptor 4) was > 30 µM (inactive) each time.
On to `CN1CC[C@@H](c2c(O)cc(O)c3c(=O)cc(-c4ccccc4Cl)oc23)[C@@H]1CO`, for which the Kd (in assay [1]; on Myosin-14; in assay [2]; at Heme oxygenase 2; in assay [3]; at Pyridoxal kinase) was > 30 µM (inactive) in each case. Besides, the Kd (in assay [4]; at Ephrin type-B receptor 4) was > 30 µM (inactive) throughout.
As to `Cn1cc(-c2ccc3nnc(C(F)(F)c4ccc5ncccc5c4)n3n2)cn1` [JNJ-38877605], the Kd (in assay [1]; at Myosin-14; in assay [2]; at Heme oxygenase 2; in assay [3]; at Pyridoxal kinase) was > 30 µM (inactive) throughout. Also, the Kd (in assay [4]; on Ephrin type-B receptor 4) was > 30 µM (inactive) throughout.
For the compound `Cc1ccc(-n2nc(C(C)(C)C)cc2NC(=O)NCc2cc(F)ccc2Oc2ccc3c(cnn3CCO)c2)cc1` [PEXMETINIB], the Kd (in assay [1]; at Myosin-14; in assay [2]; at Heme oxygenase 2; in assay [3]; on Pyridoxal kinase) was > 30 µM (inactive) throughout. Also, the Kd in assay [4] is > 30 µM (inactive); at Ephrin type-B receptor 4, 5.21 µM.
In the case of `CNC(=O)c1ccc(-c2cnc3ncc(Cc4ccc5ncccc5c4)n3n2)cc1F` [CAPMATINIB], the Kd (in assay [1]; on Myosin-14; in assay [2]; on Heme oxygenase 2; in assay [3]; on Pyridoxal kinase) was > 30 µM (inactive) throughout. Also, the Kd (in assay [4]; at Ephrin type-B receptor 4) was > 30 µM (inactive) in each case.
Consider `CNC(=O)c1ccc(C)c(-n2c(C)cc(OCc3ccc(F)cc3F)c(Br)c2=O)c1` [PH-797804], for which the Kd (in assay [1]; on Myosin-14; in assay [2]; on Heme oxygenase 2; in assay [3]; at Pyridoxal kinase) was > 30 µM (inactive) each time. For the same compound, the Kd (in assay [4]; at Ephrin type-B receptor 4) was > 30 µM (inactive) throughout.
Turning to `C[C@@H](Nc1cc(F)cc(F)c1)c1cc(C(=O)N(C)C)cc2c(=O)cc(N3CCOCC3)oc12` [AZD-8186], the Kd (in assay [1]; on Myosin-14; in assay [2]; at Heme oxygenase 2; in assay [3]; on Pyridoxal kinase) was > 30 µM (inactive) throughout. Moreover, the Kd (in assay [4]; at Ephrin type-B receptor 4) was > 30 µM (inactive) in each case.
Regarding `CNC(=O)c1cc(Oc2ccc(NC(=O)Nc3ccc(Cl)c(C(F)(F)F)c3)c(F)c2)ccn1` [REGORAFENIB], the Kd (in assay [1]; on Myosin-14; in assay [2]; on Heme oxygenase 2; in assay [3]; at Pyridoxal kinase) was > 30 µM (inactive) in each case. The Kd (in assay [4]; at Ephrin type-B receptor 4) was > 30 µM (inactive) throughout.
For the compound `CCCS(=O)(=O)Nc1ccc(F)c(C(=O)c2c[nH]c3ncc(-c4ccc(Cl)cc4)cc23)c1F` [VEMURAFENIB], the Kd (in assay [1]; on Myosin-14; in assay [2]; on Heme oxygenase 2; in assay [3]; on Pyridoxal kinase) was > 30 µM (inactive) each time. Also, the Kd (in assay [4]; on Ephrin type-B receptor 4) was > 30 µM (inactive) in each case.
Take `O=C(O)[C@]1(Cc2cccc(Nc3nccs3)n2)CC[C@@H](Oc2cccc(Cl)c2F)CC1` [MK-5108]: the Kd (in assay [1]; at Myosin-14; in assay [2]; on Heme oxygenase 2; in assay [3]; on Pyridoxal kinase) was > 30 µM (inactive) throughout. Also, the Kd (in assay [4]; at Ephrin type-B receptor 4) was > 30 µM (inactive) throughout.
